Source: patent US8101655B2, “Fluorescent dyes and complexes” (priority 2004, dated 2012)
Like-named read-outs stand apart in the source and are kept apart here. One block for each compound: values may come before it.

Key:
[1] = pKa of dyes and complexes (fluorescence titration)
From the text: By way of illustration, Table 1, below, lists a number of dyes, some prior to functionalisation, and complexes according to the present invention (in each X is O^−), together with their pKa values.

[2] = Fluorescence / colour response to pH; format: physicochemical; settings: on tlc, compared with 2-[3,6-bisdimethylaminoxanth-9-ylium]-5-dimethylaminophenol
From the text: The dyes and complexes of the present invention show a negative fluorescence intensity response with increasing pH. […] Furthermore, the pals of these dyes and complexes may be varied by selection of the substituents R^5 and R^6, and by the inclusion of electron donating groups on the lowermost aryl ring, to give a range of dyes and complexes having pKa's particularly suited to cell analysis procedures.

Compound: R1-Y=NHCSNC6H4CH2CH2; target=transferin; R2=Et; R3=Me; R4=Me; R5-Y2=Et; R6=Et: complex of a dye of formula (I) bonded to transferin
pKa ([1]; Table 1, X is O-, dyes and complexes): 2.0

Compound: 2-[3-diethylamino-6-dimethylamino-xanth-9-ylium]-5-dimethylaminophenol
pH sensitivity [2]: same pH sensitivity

pKa [1]: 2.3
Compound: COCCOCCN(CCOCCOC)c1ccc(-c2c3ccc(=[N+](CCOCCOC)CCOCCOC)cc-3oc3cc(N(CCOCCOC)CCOCCOC)ccc23)c([O-])c1
